ChEMBL document CHEMBL4616673 (J Med Chem, 2020)
pIC50: −log10 of the molar value. ≈ marks a conversion by molar mass, not a printed value.

Key:
[1] = biological target: Dihydroorotate dehydrogenase (quinone), mitochondrial (Homo sapiens, UniProt Q02127); assay: Inhibition of human DHODH using dihydroorotate as substrate and CoQ10 as co-substrate preincubated for 30 mins followed by substrate addition by DCIP coupled microplate reader assay
[2] = Solubility of the compound in PBS; assay type: physicochemical
A-375 = assay: Antiproliferative activity against human A375 cells assessed as reduction in cell viability measured after 48 hrs by MTT assay; assay type: functional, cell-based; conditions: Homo sapiens, A-375, 48 h
HCT-116 = assay: Antiproliferative activity against human HCT116 cells assessed as reduction in cell viability measured after 48 hrs by MTT assay; assay type: functional, cell-based; conditions: Homo sapiens, HCT-116, 48 h
HeLa = assay: Antiproliferative activity against human HeLa cells assessed as reduction in cell viability measured after 48 hrs by MTT assay; assay type: functional, cell-based; conditions: Homo sapiens, HeLa, 48 h
A549 = assay: Antiproliferative activity against human A549 cells assessed as reduction in cell viability measured after 48 hrs by MTT assay; assay type: functional, cell-based; conditions: Homo sapiens, A549, 48 h
MCF7 = assay: Antiproliferative activity against human MCF7 cells assessed as reduction in cell viability measured after 48 hrs by MTT assay; assay type: functional, cell-based; conditions: Homo sapiens, MCF7, 48 h
Raji = assay: Antiproliferative activity against human Raji cells assessed as reduction in cell viability measured after 48 hrs by MTT assay; assay type: functional, cell-based; conditions: Homo sapiens, Raji, 48 h
K562 = assay: Antiproliferative activity against human K562 cells assessed as reduction in cell viability measured after 48 hrs by MTT assay; assay type: functional, cell-based; conditions: Homo sapiens, K562, 48 h
NAMALVA = assay: Antiproliferative activity against human NAMALWA cells assessed as reduction in cell viability measured after 48 hrs by MTT assay; assay type: functional, cell-based; conditions: Homo sapiens, NAMALVA, 48 h

Dihydroorotate dehydrogenase (quinone), mitochondrial, sequence (Q02127 whole entry): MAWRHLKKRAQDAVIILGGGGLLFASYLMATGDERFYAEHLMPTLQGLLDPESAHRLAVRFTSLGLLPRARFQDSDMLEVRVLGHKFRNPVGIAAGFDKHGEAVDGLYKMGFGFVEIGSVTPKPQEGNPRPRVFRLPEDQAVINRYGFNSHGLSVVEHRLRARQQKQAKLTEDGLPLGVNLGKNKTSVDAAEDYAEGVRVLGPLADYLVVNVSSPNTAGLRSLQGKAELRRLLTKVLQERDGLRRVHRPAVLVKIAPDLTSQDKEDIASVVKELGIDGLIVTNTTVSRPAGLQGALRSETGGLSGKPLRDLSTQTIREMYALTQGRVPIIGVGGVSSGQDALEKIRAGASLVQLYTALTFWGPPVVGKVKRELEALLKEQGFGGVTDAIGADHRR

Row | SMILES | pIC50 [1] | solubility [2] [µg/mL] | pIC50 (A-375) | pIC50 (HCT-116) | pIC50 (HeLa) | pIC50 (A549) | pIC50 (MCF7) | pIC50 (Raji) | pIC50 (K562) | pIC50 (NAMALVA)
1 | O=C1c2ccccc2C(=O)c2c1nnn2-c1cccc(I)c1 | < 6.00 | – | – | – | – | – | – | – | – | –
2 | COc1ccc2c(c1)C(=O)c1c(nnn1-c1cc(F)c(-c3ccccc3F)c(F)c1)C2=O | < 6.00 | – | – | – | – | – | – | – | – | –
3 | O=C1c2ccccc2C(=O)c2c1nnn2-c1ccc(-c2ccccc2F)cc1 | 8.35 | < 10 | 5.53 | 5.48 | < 5.00 | < 5.00 | < 5.00 | 5.65 | 5.73 | 5.55
4 | CC(C)C1CC(=O)c2nnn(-c3cc(F)c(-c4ccccc4F)c(F)c3)c2C1 (stereo not drawn) | 6.28 | – | – | – | – | – | – | – | – | –
5 | CC1(C)CC(=O)c2nnn(-c3cc(F)c(-c4ccccc4F)c(F)c3)c2C1 | < 6.00 | – | – | – | – | – | – | – | – | –
6 | O=C1c2ccccc2C(=O)c2c1nnn2-c1cc(F)c(-c2ccc(F)cc2)c(F)c1 | 8.16 | – | 5.80 | 5.65 | < 5.00 | < 5.00 | < 5.00 | < 5.00 | < 5.00 | < 5.00
7 | CC(C)c1ccc(-c2cc(F)c(-n3nnc4c3C(=O)c3ccccc3C4=O)c(F)c2)cc1 | < 6.00 | – | – | – | – | – | – | – | – | –
8 | O=C1c2ccccc2C(=O)c2c1nnn2-c1ccc(-c2cc(C(F)(F)F)cc(C(F)(F)F)c2)cc1 | < 6.00 | – | – | – | – | – | – | – | – | –
9 | Nc1cccc(-n2nnc3c2C(=O)c2ccccc2C3=O)c1 | < 6.00 | – | – | – | – | – | – | – | – | –
10 | O=C1c2cc(F)ccc2C(=O)c2c1nnn2-c1cc(F)c(-c2ccccc2F)c(F)c1 | 7.01 | – | – | – | – | – | – | – | – | –
11 | O=C1c2cc(O)ccc2C(=O)c2c1nnn2-c1cc(F)c(-c2ccccc2F)c(F)c1 | < 6.00 | – | – | – | – | – | – | – | – | –
12 | OC1c2ccccc2C(O)c2c1nnn2-c1cc(F)c(-c2ccccc2F)c(F)c1 (stereo not drawn) | 8.29 | < 10 | 6.80 | 6.24 | < 5.00 | < 5.00 | < 5.00 | < 5.00 | < 5.00 | < 5.00
13 | COc1ccccc1-n1nnc2c1C(=O)c1ccccc1C2=O | < 6.00 | – | – | – | – | – | – | – | – | –
14 | CN(C)c1cccc(-c2c(F)cc(-n3nnc4c3C(=O)c3ccccc3C4=O)cc2F)c1 | 9.30 | < 10 | 7.70 | 6.39 | 5.69 | < 5.00 | < 5.00 | 5.67 | < 5.00 | < 5.00
15 | CC(C)c1ccc(-c2ccc(-n3nnc4c3C(=O)c3ccccc3C4=O)c(F)c2)cc1 | < 6.00 | – | – | – | – | – | – | – | – | –
16 | O=C1c2ccc(O)cc2C(=O)c2c1nnn2-c1cc(F)c(-c2ccccc2F)c(F)c1 | < 6.00 | – | – | – | – | – | – | – | – | –
17 | O=C1c2ccccc2C(=O)c2c1nnn2-c1cc(F)c(-c2cccc(CO)c2)c(F)c1 | 8.92 | 14.6 (≈ 35 µM) | 7.52 | 5.66 | < 5.00 | < 5.00 | < 5.00 | 5.48 | < 5.00 | < 5.00
18 | CC(C)c1ccc(-n2nnc3c2C(=O)c2ccccc2C3=O)cc1 | 6.25 | – | – | – | – | – | – | – | – | –
19 | COc1cc(-c2ccc(-n3nnc4c3C(=O)c3ccccc3C4=O)cc2)cc(OC)c1OC | < 6.00 | – | – | – | – | – | – | – | – | –
20 | O=C1c2ccccc2C(=O)c2c1nnn2-c1cc(F)c(-c2cccc(CO)c2F)c(F)c1 | 8.92 | 17.6 (≈ 40.4 µM) | 7.52 | 6.82 | < 5.00 | < 5.00 | < 5.00 | < 5.00 | < 5.00 | < 5.00

More lines, main results first:

Row | pIC50 [1] | solubility [2] [µg/mL] | pIC50 (A-375) | pIC50 (HCT-116) | pIC50 (HeLa) | pIC50 (A549) | pIC50 (MCF7) | pIC50 (Raji) | pIC50 (K562) | SMILES | pIC50 (NAMALVA)
21 | < 6.00 | – | – | – | – | – | – | – | – | Fc1ccccc1-c1c(F)cc(-n2cc(-c3ccccc3)nn2)cc1F | –
22 | < 6.00 | – | – | – | – | – | – | – | – | O=C1c2ccccc2C(=O)c2c1nnn2-c1ccncc1 | –
23 | 8.34 | < 10 | 6.38 | 5.79 | < 5.00 | < 5.00 | < 5.00 | 5.42 | 5.62 | COC(=O)Cc1cccc(-c2c(F)cc(-n3nnc4c3C(=O)c3ccccc3C4=O)cc2F)c1 | < 5.00
24 | < 6.00 | – | – | – | – | – | – | – | – | Cc1cc(-n2nnc3c2C(=O)c2ccccc2C3=O)ccc1F | –
25 | 7.72 | – | 5.23 | 5.37 | < 5.00 | < 5.00 | < 5.00 | 5.34 | < 5.00 | O=C1c2ccccc2C(=O)c2c1nnn2-c1ccc(-c2ccccc2)cc1 | 5.73
26 | < 6.00 | – | – | – | – | – | – | – | – | O=C1c2ccccc2C(=O)c2c1nnn2-c1cccc(O)c1 | –
27 | < 6.00 | – | – | – | – | – | – | – | – | N#Cc1ccccc1-n1nnc2c1C(=O)c1ccccc1C2=O | –
28 | 8.39 | 15.4 (≈ 40.4 µM) | 8.00 | 6.74 | < 5.00 | < 5.00 | < 5.00 | 6.10 | 6.68 | COc1cc(-n2nnc3c2C(=O)c2ccccc2C3=O)ccc1-c1ccccc1 | < 5.00
29 | < 6.00 | – | – | – | – | – | – | – | – | O=C1c2ccccc2C(=O)c2c1nnn2-c1ccc(N2CCOCC2)nc1 | –
